{
  "source": "paper PMC8179358",
  "about": "“An explicitly designed paratope of amyloid-β prevents neuronal apoptosis in vitro and hippocampal damage in rat brain” (Chemical Science, 2020)",
  "assay": "Carboxyfluorescein dye leakage from LUVs, Aβ40",
  "assay_type": "biochemical",
  "description": "Smaller Aβ oligomers or protofibrils are more toxic than mature fibrils in AD progression due to their ability to disrupt membranes via pore formation.[37,38] […] To evaluate this, we performed a membrane leakage assay on carboxyfluorescein-loaded large unilamellar vesicles (LUVs).[38] The time required for Aβ40 oligomer and mature fibril formation is 12 h and 72 h, respectively (inferred from ThT assay, black curve, Fig. 2a), which directed us to set up the LUV leakage assay. […] The fluorescence intensity of complete dye release from LUVs by Triton X-100 served as a positive control (100% leakage), and untreated dye-loaded LUVs assisted as a negative control. […]\ne. Time-resolved photoluminescence (TRPL) […]\nμM. Then, 600 μL of peptide sample was placed in a 1 mL fluorescence cuvette and measure the excited state lifetime on Eddinburg FSP920 Instrument. f. […]\nPrior to the analysis, samples were filtered through 0.45 µm PVDF membrane. […] For each sample, the analyses were recorded three times with 11 sub-runs using the multimodal mode. The Z-average diameter was calculated from the correlation function using Malvern technology software. g. […]\nh. Carboxyfluorescein dye loaded Large Unilamellar Vesicles (LUVs) Leakage Study For leakage study, peptide and lipids were taken in 1:20 molar ratios, and the dye release was monitored by fluorescence emission. […]",
  "data": [
    {"substance": "Aβ40: commercially available Aβ40 peptide", "values": [
      {"measurement": "dye leakage from LUVs", "setting": "Aβ40 oligomers (12 h aged), until 100 min, untreated LUVs ∼9%, Triton X-100 = 100%", "value": "~40", "unit": "%"},
      {"measurement": "dye leakage from LUVs", "setting": "mature Aβ40 fibrils (72 h), 100 min, peptide:lipid 1:20", "value": "~15", "unit": "%"}
    ]}
  ]
}
